# Calls of active or inactive are those of the source. No cut-off for these calls is given here.
# What was measured:
# [1] = target: T1, Histone-lysine N-methyltransferase EZH2 (Homo sapiens, UniProt Q15910); assay: Binding affinity to wild type recombinant EZH2 (494 to 737 residues) (unknown origin) expressed in Escherichia coli assessed as adduct formation incubated for 2 hrs by LC-MS analysis
# Target sequence in this assay (Q15910 whole entry, looked up, the tested form may be a part): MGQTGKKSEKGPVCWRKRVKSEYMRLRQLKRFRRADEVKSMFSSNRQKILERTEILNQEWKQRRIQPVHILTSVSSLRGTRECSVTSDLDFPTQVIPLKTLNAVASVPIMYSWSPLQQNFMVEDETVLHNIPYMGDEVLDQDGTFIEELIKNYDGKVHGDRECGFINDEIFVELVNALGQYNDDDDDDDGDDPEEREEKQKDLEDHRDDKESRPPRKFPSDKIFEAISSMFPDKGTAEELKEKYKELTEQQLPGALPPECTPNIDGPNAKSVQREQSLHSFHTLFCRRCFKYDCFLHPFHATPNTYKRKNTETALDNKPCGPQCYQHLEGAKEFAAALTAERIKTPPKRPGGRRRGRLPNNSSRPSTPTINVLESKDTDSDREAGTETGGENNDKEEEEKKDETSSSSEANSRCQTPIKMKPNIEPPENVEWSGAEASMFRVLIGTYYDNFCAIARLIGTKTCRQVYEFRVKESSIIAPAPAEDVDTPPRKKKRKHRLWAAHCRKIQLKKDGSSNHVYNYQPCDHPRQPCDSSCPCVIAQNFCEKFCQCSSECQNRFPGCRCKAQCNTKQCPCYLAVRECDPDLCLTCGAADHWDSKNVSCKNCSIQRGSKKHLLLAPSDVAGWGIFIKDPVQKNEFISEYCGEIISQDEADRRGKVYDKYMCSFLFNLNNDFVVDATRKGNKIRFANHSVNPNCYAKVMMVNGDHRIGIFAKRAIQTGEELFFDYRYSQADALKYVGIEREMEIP
# [2] = target: T1, Histone-lysine N-methyltransferase EZH2; assay: Inhibition of wild type EZH2 (unknown origin) by AlphaLlSA assay
# Target sequence in this assay (Q15910 whole entry, the tested form may be a part): as the sequence (Q15910 whole entry, looked up, the tested form may be a part) above
# [3] = test system: BT-549; assay: Antiproliferative activity against human BT-549 cells assessed as inhibition of cell proliferation incubated for 72 hrs by MTT assay; assay type: functional, cell-based; conditions: BT-549, 72 h
# [4] = test system: OVCAR-3; assay: Antiproliferative activity against human OVCAR-3 cells assessed as inhibition of cell proliferation incubated for 72 hrs by MTT assay; assay type: functional, cell-based; conditions: OVCAR-3, 72 h
# [5] = test system: SK-OV-3; assay: Antiproliferative activity against human SK-OV-3 cells assessed as inhibition of cell proliferation incubated for 72 hrs by MTT assay; assay type: functional, cell-based; conditions: SK-OV-3, 72 h
# [6] = test system: 4T1; assay: Antiproliferative activity against mouse 4T1 cells assessed as inhibition of cell proliferation incubated for 72 hrs by MTT assay; assay type: functional, cell-based; conditions: 4T1, 72 h
# [7] = test system: NCI-H1703; assay: Antiproliferative activity against human NCI-H1703 cells assessed as inhibition of cell proliferation incubated for 72 hrs by MTT assay; assay type: functional, cell-based; conditions: NCI-H1703, 72 h
# [8] = test system: ES-2; assay: Antiproliferative activity against human ES2 cells assessed as inhibition of cell proliferation incubated for 72 hrs by MTT assay; assay type: functional, cell-based; conditions: ES-2, 72 h
# [9] = Antiproliferative activity against human COV362 cells assessed as inhibition of cell proliferation incubated for 72 hrs by MTT assay; assay type: functional, cell-based; conditions: COV362, 72 h
# [10] = test system: OAW-42; assay: Antiproliferative activity against human OAW-42 cells assessed as inhibition of cell proliferation incubated for 72 hrs by MTT assay; assay type: functional, cell-based; conditions: OAW-42, 72 h
# [11] = test system: A2780; assay: Antiproliferative activity against human A2780 cells assessed as inhibition of cell proliferation incubated for 72 hrs by MTT assay; assay type: functional, cell-based; conditions: A2780, 72 h
# [12] = test system: MCF7; assay: Antiproliferative activity against human MCF7 cells assessed as inhibition of cell proliferation incubated for 72 hrs by MTT assay; assay type: functional, cell-based; conditions: MCF7, 72 h
# [13] = test system: PA-1; assay: Antiproliferative activity against human PA-1 cells assessed as inhibition of cell proliferation incubated for 72 hrs by MTT assay; assay type: functional, cell-based; conditions: PA-1, 72 h
# [14] = test system: A549; assay: Antiproliferative activity against human A549 cells assessed as inhibition of cell proliferation incubated for 72 hrs by MTT assay; assay type: functional, cell-based; conditions: A549, 72 h
# [15] = test system: SK-BR-3; assay: Antiproliferative activity against human SK-BR-3 cells assessed as inhibition of cell proliferation incubated for 72 hrs by MTT assay; assay type: functional, cell-based; conditions: SK-BR-3, 72 h
# [16] = test system: HEY; assay: Antiproliferative activity against human HEY cells assessed as inhibition of cell proliferation incubated for 72 hrs by MTT assay; assay type: functional, cell-based
# [17] = test system: PA-1; assay: Antitumor activity against human PA-1 cells xenografted in BALB/C nude mouse assessed as tumor growth inhibition at 150 mg/kg,po BID for 21 days; assay type: functional; conditions: PA-1, 504 h, time 21 day, read-out: TGI
# [18] = test system: PA-1; assay: Antiproliferative activity against human PA-1 cells assessed as reduction in cell viability at 10 uM incubated for 3 days followed by compound washout and measured after 4 days by microscopy analysis; assay type: functional, cell-based; conditions: time 3.0 day
# [19] = test system: PA-1; assay: Inhibition of colony formation in human PA-1 cells assessed as reduction in size of colonies at 0.25 to 10 uM incubated for 14 days with medium change every 3 days by crystal violet staining method; assay type: functional, cell-based; conditions: dose 0.25-10 µM, time 14.0 day
# [20] = test system: A2780; assay: Inhibition of colony formation in human A2780 cells assessed as reduction in size of colonies at 0.25 to 10 uM incubated for 14 days with medium change every 3 days by crystal violet staining method; assay type: functional, cell-based; conditions: dose 0.25-10 µM, time 14.0 day
# [21] = test system: PA-1; assay: Inhibition of colony formation in human PA-1 cells assessed as reduction in number of colonies at 0.25 to 10 uM incubated for 14 days with medium change every 3 days by crystal violet staining method; assay type: functional, cell-based; conditions: dose 0.25-10 µM, time 14.0 day
# [22] = test system: A2780; assay: Inhibition of colony formation in human A2780 cells assessed as reduction in number of colonies at 0.25 to 10 uM incubated for 14 days with medium change every 3 days by crystal violet staining method; assay type: functional, cell-based; conditions: dose 0.25-10 µM, time 14.0 day
# [23] = target: T1, Histone-lysine N-methyltransferase EZH2; assay: Inhibition of EZH2 methyltransferase activity in human A2780 cells assessed as reduction in H3K27me3 level incubated for 3 days by Western blot analysis; assay type: cell-based
# Target sequence in this assay (Q15910 whole entry, the tested form may be a part): as the sequence (Q15910 whole entry, looked up, the tested form may be a part) above
Compound,IC50 [2] [µM],IC50 [3] [µM],IC50 [4] [µM],IC50 [5] [µM],IC50 [6] [µM],IC50 [7] [µM],IC50 [11] [µM],IC50 [12] [µM],IC50 [14] [µM],IC50 [15] [µM],IC50 [8] [µM],IC50 [9] [µM],IC50 [10] [µM],IC50 [13] [µM],IC50 [16] [µM],other results
C=CC(=O)NCc1ccc(-c2cc(C(=O)NCc3c4c(c(C)[nH]c3=O)CCCC4)c(C)c(N(CC)C3CCOCC3)c2)cc1,0.0108,,,,,,,,,,,,,,,Activity [1]: inactive
"CCOCCNC(=O)/C(C)=C/C[C@@]12OC(C)(C)C3C[C@@H](C=C4C(=O)c5c(O)c(C/C=C(\C)CCC=C(C)C)c(O)c(CC=C(C)C)c5O[C@]431)C2=O (single isomer, unassigned)",1.1,,,,,,,,,,,,,,,
CCC(=O)Nc1ccc(C)c(-c2cc(C(=O)NCc3c(C)cc(C)[nH]c3=O)c(C)c(N(CC)C3CCOCC3)c2)c1,0.00301,> 100,> 100,> 100,> 100,69,60.4,> 100,> 100,> 100,89.5,> 100,> 100,78.3,> 100,inhibition [19]: Dose-Dependent Effect; Activity [1]: inactive; inhibition [20]: Dose-Dependent Effect; Activity [18]: inactive; inhibition [21]: Dose-Dependent Effect; inhibition [22]: Dose-Dependent Effect; IC50 [23]: 4.72 µM

# Further lines, with some results ahead:
IC50 [2] [µM],IC50 [3] [µM],IC50 [4] [µM],IC50 [5] [µM],IC50 [6] [µM],IC50 [7] [µM],IC50 [11] [µM],IC50 [12] [µM],IC50 [14] [µM],IC50 [15] [µM],Compound,IC50 [8] [µM],IC50 [9] [µM],IC50 [10] [µM],IC50 [13] [µM],IC50 [16] [µM],other results
,23.3,29.8,68.4,10.4,> 100,12,18.8,23,15.5,CC[C@H](C)n1cc(C)c2c(C(=O)NCc3c(C)cc(C)[nH]c3=O)cc(-c3ccc(N4CCNCC4)nc3)cc21 [GSK2816126],32.2,> 100,55.4,12.2,> 100,
0.00164,60.2,> 100,41.8,31,37.4,15.7,63.3,33.3,66.2,C=CC(=O)Nc1cccc(-c2cc(C(=O)NCc3c(C)cc(C)[nH]c3=O)c(C)c(N(CC)C3CCOCC3)c2)c1,38.6,> 100,> 100,24.7,66.7,
,58.2,> 100,89.8,29.3,> 100,47,> 100,> 100,67.1,CCN(c1cc(-c2ccc(CN3CCOCC3)cc2)cc(C(=O)NCc2c(C)cc(C)[nH]c2=O)c1C)C1CCOCC1 [TAZEMETOSTAT],79,> 100,> 100,46.6,> 100,inhibition in vivo at 150 mg/kg [17]: 56.8%; Activity [18]: inactive
,> 100,> 100,> 100,58.4,> 100,34.4,> 100,> 100,> 100,CCC(=O)Nc1cccc(-c2cc(C(=O)NCc3c(C)cc(C)[nH]c3=O)c(C)c(N(CC)C3CCOCC3)c2)c1,> 100,> 100,> 100,> 100,> 100,

# — ChEMBL document CHEMBL5316326, “Discovery of a Novel Covalent EZH2 Inhibitor Based on Tazemetostat Scaffold for the Treatment of Ovarian Cancer” (J Med Chem, 2023)
